Source: ChEMBL document CHEMBL4308892, “Synthesis and anti-neuroinflammatory activity of N-heterocyclic analogs based on natural biphenyl-neolignan honokiol” (Bioorg Med Chem Lett, 2019)

Legend:
[1] = tested on: BV-2; test: Anti-inflammatory activity in mouse BV2 cells assessed as inhibition of LPS-induced nitric oxide production after 24 hrs by griess assay; assay type: functional, cell-based; conditions: for IC50: BV-2, 24 h
[2] = Cytotoxicity against LPS-stimulated mouse BV2 cells assessed as cell viability at 20 uM after 24 hrs by MTT assay relative to control; assay type: cell-based, BV-2; conditions: read-out: Activity
[3] = tested on: BV-2; test: Cytotoxicity against LPS-stimulated mouse BV2 cells assessed as reduction in cell viability at <10 uM after 24 hrs by MTT assay; assay type: cell-based; conditions: bv-2, 24 h
[4] = tested on: BV-2; test: Anti-inflammatory activity in mouse BV2 cells assessed as inhibition of LPS-induced iNOS expression after 24 hrs by Western blot analysis; assay type: functional, cell-based
[5] = tested on: BV-2; test: Anti-inflammatory activity in mouse BV2 cells assessed as inhibition of LPS-induced COX2 expression after 24 hrs by Western blot analysis; assay type: functional, cell-based
[6] = tested on: BV-2; test: Anti-inflammatory activity in mouse BV2 cells assessed as inhibition of LPS-induced nitric oxide production pretreated followed by LPS-stimulation by griess assay; assay type: functional, cell-based

IC50 [1]	Compound	viability at 24 h, 20 µM [2]	other results
> 200 µM	CCCn1ccc(-c2cc(CC)ccc2O)n1	109%	–
> 200 µM	COc1ccc(Br)cc1-c1ccn(-c2ccccc2)n1	124%	–
> 200 µM	C=CCc1ccc(OC)c(-c2cc(CN3CCN(Cc4ccccc4)CC3)on2)c1	98.6%	–
> 200 µM	C=CCc1ccc(OC)c(-c2cc(CO)on2)c1	120%	–
> 200 µM	C=CCc1ccc(O)c(-c2cc(CO)on2)c1	126%	–
> 200 µM	COc1ccc(Br)cc1-c1cc(CN2CCN(C(=O)OC(C)(C)C)CC2)on1	100%	–
116 µM	CCCc1ccc(O)c(-c2ccn(Cc3ccccc3)n2)c1	126%	–
30.5 µM	C=CCn1ccc(-c2cc(C=C)ccc2O)n1	105%	–
> 200 µM	C=CCc1ccc(OC)c(-c2cc(CN3CCN(CC(=O)OCC)CC3)on2)c1	93.2%	–
> 200 µM	C=CCc1ccc(OC)c(-c2cc(CCC)on2)c1	98.2%	–
112 µM	C=CCn1ccc(-c2cc(Br)ccc2O)n1	113%	–
76.9 µM	C=CCc1ccc(OC)c(-c2cc(CN3CCN(C(=O)OC(C)(C)C)CC3)on2)c1	117%	–
26.6 µM	CNC(=N)NCCC[C@H](N)C(=O)O [TILARGININE]	94.4%	–
> 200 µM	Oc1ccc(Br)cc1-c1ccn(-c2ccccc2)n1	109%	–
> 200 µM	COc1ccc(Br)cc1-c1ccn(Cc2ccccc2)n1	122%	–
92.5 µM	C=CCc1ccc(O)c(-c2ccn(Cc3ccccc3)n2)c1	99.5%	–
28.7 µM	C=CCOCc1cc(-c2cc(CC=C)ccc2OC)no1	141%	–
> 200 µM	CCCc1cc(-c2cc(Br)ccc2OC)no1	97.9%	–
1.2 µM	C=CCc1ccc(O)c(-c2ccn(CC=C)n2)c1	59.9%	inhibition [1]: Dose-dependent effect; Activity [3]: Non-Toxic; inhibition [4]: Dose-dependent effect; inhibition [5]: Dose-dependent effect
> 200 µM	Oc1ccc(Br)cc1-c1ccn(Cc2ccccc2)n1	107%	–

IC50 [1]	Compound	viability at 24 h, 20 µM [2]	other results
8.92 µM	C=CCc1ccc(OC)c(-c2ccn(-c3ccccc3)n2)c1	68.6%	inhibition [1]: Dose-dependent effect; Activity [3]: Non-Toxic; inhibition [4]: Dose-dependent effect; inhibition [5]: Dose-dependent effect
> 200 µM	C=CCn1ccc(-c2cc(Br)ccc2OC)n1	92.2%	–
> 200 µM	C=CCc1ccc(OC)c(-c2ccn(CC=C)n2)c1	109%	–
> 200 µM	COc1ccc(Br)cc1-c1cc(COCc2ccccc2)on1	104%	–
111 µM	C=CCc1ccc(OC)c(-c2cc(CN3CCN(CC=C)CC3)on2)c1	101%	–
> 200 µM	CCOC(=O)COCc1cc(-c2cc(Br)ccc2OC)no1	122%	–
–	CCCCC/C=C/C(=O)CCc1ccc(O)c(OC)c1 [SHOGAOL]	–	IC50 [6]: 5.59 µM
36 µM	C=CCc1ccc(OC)c(-c2ccn(Cc3ccccc3)n2)c1	112%	–
> 200 µM	C=CCc1ccc(OC)c(-c2cc(COCc3ccccc3)on2)c1	145%	–
> 200 µM	COc1ccc(Br)cc1-c1cc(CO)on1	94.1%	–
17 µM	C=CCc1ccc(O)c(-c2ccc(O)c(CC=C)c2)c1 [HONOKIOL]	118%	–
73 µM	C=CCc1ccc(O)c(-c2ccn(-c3ccccc3)n2)c1	125%	–
25.9 µM	C=CCc1ccc(OC)c(-c2cc(COCC(=O)OCC)on2)c1	126%	–
60.2 µM	CCCc1ccc(O)c(-c2cc[nH]n2)c1	94.7%	–
52.3 µM	C=CCc1ccc(O)c(-c2ccc(OC)c(CC=C)c2)c1 [METHYLHONOKIOL]	115%	–
> 200 µM	C=CCc1ccc(O)c(-c2cc(CCC)on2)c1	93.3%	–
90.4 µM	C=CCOCc1cc(-c2cc(Br)ccc2OC)no1	94.6%	–
109 µM	CCCc1ccc(O)c(-c2ccn(-c3ccccc3)n2)c1	125%	–
91.3 µM	CCCc1ccc(O)c(-c2ccn(CCC)n2)c1	129%	–
